In a melting point compilation (Tetko et al.; mined from patent text by program, amines drawn as free bases though some values may be those of a salt):

| Structure (SMILES) | melting point |
| --- | --- |
| O=[N+]([O-])c1ccc(CCc2nnco2)cc1 | 93 to 94 °C |
| CS(=O)(=O)c1c(Cl)ccc(C(=O)O)c1Cl | 158 °C |
| CC(=O)SCCNC(=O)[C@H](CS)NC(=O)C(C)C | 117 to 120 °C |
| COc1ccc2c(c1)c(Cc1nc(-c3ccc(Cl)cc3)cs1)c(C)n2C(=O)c1ccc(Cl)cc1 | 186 to 188 °C |
| CCOC(=O)N(N=C[N+](=O)[O-])c1ccc(C(=O)OC)c(S(=O)(=O)NC(C)(C)C)c1 | 142 to 145 °C |
| O=C1CCN(c2ccncn2)CC1 | 61 to 65 °C |
| CCCNc1cc(NS(=O)(=O)c2ccc(N)cc2)nc(NCCC)n1 | 211 to 215 °C |
| COC1(c2cc(F)cc(OCc3ccc(N(C)S(C)(=O)=O)c(Cl)c3)c2)CCOCC1 | 126 to 128 °C |
| Cc1ccc(C)c(Oc2noc(=O)n2S(=O)(=O)N(C)C)c1 | 101 to 103 °C |
| CCCCCCCCCCCCCCCCCCNC(=O)OCC(CNS(=O)(=O)CCCI)COC (stereo unspecified) | 69 to 70 °C |
| Cc1c2c(c(C(O)c3ccccn3)c(C)c1NC(=O)CC(C)(C)C)OC(C)(C)C2 (stereo unspecified) | 176 to 177 °C |
| CC(C)C(C(=O)O)c1cc(Cl)c(O)c(Cl)c1 (stereo unspecified) | 152 to 154 °C |
| CC(=O)NC(Cc1ccc([N+](=O)[O-])cc1)C(=O)O (stereo unspecified) | 165 to 166 °C |
| CN(C)CC(=O)NCc1nc(C(=O)N(C)C)nn1-c1ccc(Cl)cc1C(=O)c1ccccc1Cl | 122 to 124 °C |
| COC(=O)c1nc(-c2ccc(Cl)cc2F)nc(N)c1Br | 186 to 188 °C |
| O=S(=O)(Nc1ccc2c(OCc3cccc(-c4cc(Cl)cc(Cl)c4)c3)cccc2c1)C(F)(F)F | 142 to 143 °C |
| C=C(C)COC1CC2C3CCC4=CC(=O)CCC4(C)C3(F)C(O)CC2(C)C1(O)C(=O)CO (stereo unspecified) | 213 to 215 °C |
| Cc1nnc2n1-c1ccc(C#CCn3cnc4ccccc43)cc1C(c1ccccc1Cl)=NC2 | 165 to 168 °C |
| CC(=O)OC1CSC(Oc2ccc(-c3cncc(Cl)c3)nc2)C(OC(C)=O)C1OC(C)=O (stereo unspecified) | 203 to 205 °C |
| CC(C)(CO)Cc1ccc(CC(C)(C)CO)cc1 | 104 to 105 °C |
| CCOC(=O)c1ncc2[nH]c3ccc(S(=O)(=O)N(C)C)cc3c2c1COC | 191 to 193 °C |
| CC1C(=NCCCN(C)C)c2c([nH]c3ccc(Cl)cc3c2=O)CC1c1ccc(C(F)(F)F)cc1 (stereo unspecified) | 169 to 170 °C |
| CC(C)C(=O)c1cccc(S(N)(=O)=O)c1 | 170 to 171 °C |
| Nc1c(C2CNCCO2)oc2ccccc2c1=O (stereo unspecified) | 140 to 141 °C |
| CCCCCC(=O)CCc1ccc(CCCCCCCC(=O)O)o1 | 64 to 65 °C |
| Cc1ccc(C)n1-c1ccc(OC(C)(C)C(=O)O)cc1 | 178 to 180 °C |

| Structure (SMILES) | melting point |
| --- | --- |
| CCCCCCCCCCCCCCCCCCCCC1Cc2cc(C(=O)O)ccc2N1 (racemic) | 110 to 115 °C |
| COc1ccccc1C=CC=CC(=O)c1cc(OC)c(OC)c(OC)c1 | 111 °C |
| CC(=O)c1cccc(-c2ncc(OCCCN(C)C)cn2)c1 | 61 to 62 °C |
| CC(=O)Nc1nnnn1CC(I)=C(I)I | 178 to 185 °C |
| COc1ccc(Cl)cc1NC(=O)[C@H]1[C@H](c2ccc(Br)cc2)C1(C)C (relative stereo) | 170 to 172 °C |
| N#CC(C#N)CC(=O)c1ccc(Cl)s1 | 155 to 158 °C |
| O=C(NC(=O)c1cc(F)c(F)cc1Cl)Nc1ccc(C(=O)O)cc1OC(F)(F)F | 236 °C |
| Cc1cc(Cl)c2c(c1)C(=O)N(C(C)(C)C)CC(=O)N2 | 151 to 152 °C |
| O=C(O)/C=C/C(=O)/C=C/c1ccc2c(c1)OCO2 | 170 to 173 °C |
| COc1ccc2[nH]c3c([N+](=O)[O-])cc([N+](=O)[O-])c(Cl)c3c(=O)c2c1 | 253 to 254 °C |
| Brc1ccc2[nH]cc(C3=CCNCC3)c2c1 | 202 to 204 °C |
| Cc1cc2c(c3c1NC(=O)CC3)OC(CN(C)C(=O)CCCO)C2 (stereo unspecified) | 141 to 143 °C |
| C=CCOc1ccc(C[C@H](NC(C)=O)C(=O)OCC)cc1 | 69 to 70 °C |
| NNC(=O)C(Cl)(Cl)c1cccc(Cl)n1 | 198 to 200 °C |
| CCOC(=O)C(C)Oc1ncn(-c2ccc(OC(F)(F)F)cc2)n1 (stereo unspecified) | 52 to 53 °C |
| COc1cc2c(cc1OC)N(C)C(=O)CN=C2c1cccc(C)c1 | 119 to 121 °C |
| CCOC(=O)c1[nH]c(CC)nc1C1CC1 | 154 to 155 °C |
| CCNC(=O)Nc1cn(-c2cccnc2)nc1C | 197 to 200 °C |
| c1cc(-c2ccsc2)ccn1 | 138 °C |
| CC#CC(C)(C)NC(=O)C(CC)Oc1cncc(Br)c1 (single isomer, unassigned; (-)) | 95 to 97 °C |
| CCCc1c(OCCCCCc2c(Cl)ccc(OC)c2OC)ccc(C(=O)OC)c1O | 53 to 55 °C |
| OCCn1ccccc1=S | 95 to 97 °C |
| C1=CCC(OC2=CC=CC2)=C1 | 74 °C |
| COC(=O)C(=CN(C)C)N(C)c1cc(-c2cccc(OC)c2)ncn1 | 172 to 174 °C |
| CCOC(=O)Cn1c(=O)c(=O)[nH]c2ccc3ccc([N+](=O)[O-])cc3c21 | > 250 °C |
| Cc1cc(C)c(C(C#N)C=O)c(C)c1 (stereo unspecified) | 120 to 122 °C |

Other lines, results leading:

| melting point | Structure (SMILES) |
| --- | --- |
| 139 to 140 °C | CN(C)C(=O)Cc1csc(NC(=O)C(Cc2ccccc2)NC(=O)OC(C)(C)C)n1 (stereo unspecified) |
| 59 to 61 °C | COc1cccc(CN(C)CC(CCN2CCC(NC(C)=O)(c3ccccc3)CC2)c2ccc(Cl)c(Cl)c2)c1 (stereo unspecified) |
| 140 to 141 °C | CC(C)(Oc1ccc(Cl)cc1)C(C)(O)c1cccnc1 (stereo unspecified) |
| 78 to 79 °C | CC(S)C(=O)NCCc1ccccc1 (stereo unspecified) |
| 198 to 199 °C | Cc1cc(C(=O)NS(=O)(=O)Cc2ccccc2C(F)(F)F)nc(Cl)n1 |
| 134 to 137 °C | N#Cc1ccc(C(CC(=O)O)N2C(=O)c3ccccc3C2=O)cc1 (stereo unspecified) |
| 115 to 116 °C | CC(C)(C)OC(=O)CNC(=O)c1sc(Nc2ccccc2)c2c1CCc1cnoc1-2 |
| 191 °C | Cc1ccc(-c2ccc(OC3SCC(O)C(O)C3O)cn2)cc1 (stereo unspecified) |
| 200 to 212 °C | N[C@H]1CCN(c2ccc3c(NC(=O)CCc4ccccc4Cl)c(Cl)ccc3n2)C1 |
| 138 °C | CCCC(NC(=O)C1CC(=O)c2cc(F)ccc2O1)c1ccccc1 (single isomer, unassigned; (+)) |
| 107 to 112 °C | O=C(c1ccccc1)C(O)C1OC(n2cnc3c(NC4CCCc5ccccc54)ncnc32)C(O)C1O (stereo unspecified) |
| 102 to 104 °C | N#CC1c2ccccc2C=Cc2ccccc21 |
| 202 to 204 °C | CN(C1CCN(Cc2ccccn2)CC1)S(=O)(=O)c1ccc(Nc2nccc(Nc3ccc(F)cc3)n2)cc1 |
| 251 to 252 °C | Nc1ccc(-c2n[nH]c(-c3ccncc3)n2)cc1 |
| > 250 °C | O=C(Nc1nccs1)c1nc(-c2cccc3ccccc23)[nH]c1-c1ccccc1 |
| 45 °C | CCCC1(C)CC(=O)c2ccc(OCc3ccccc3)c(C)c2O1 (stereo unspecified) |
| 174 to 180 °C | O=C(O)C(c1ccc(F)cc1)N1C(=O)c2ccccc2C1=O (stereo unspecified) |
| 180 to 184 °C | CCc1noc(-c2ncc3[nH]c4cccc(OCc5ccccc5)c4c3c2COC)n1 |
| 150 to 151 °C | CN1CCN(c2ccc3c(c2)NC(=O)C(C)(c2ccc([N+](=O)[O-])cc2)C3=O)CC1 (stereo unspecified) |
| 191 to 192 °C | COc1cc2c(cc1OC)C(C(CO)CO)N(C(=O)Nc1ccccc1)CC2 (stereo unspecified) |
| 190 to 191 °C | COC(=O)c1c(CN2CCC(S(C)(=O)=O)CC2)c(=O)c2ccc(F)cc2n1-c1ccccc1 |
| 227 °C | Nc1ccccc1C(=O)NCCN1CCC(n2c(=O)[nH]c3cc(Cl)ccc32)CC1 |
| 96 to 99 °C | CC(C)CC(=O)Nc1cccc(-c2ccnc3c(-c4cccc5cccnc45)cnn23)c1 |
| 208 °C | CN1CCC(CC(O)c2cc(-c3ccccc3)nc3ccccc23)CC1 (stereo unspecified) |
| 214 to 215 °C | CCOc1ccc(-c2nc3n(c2-c2ccc(OCC)cc2)CCS3)cc1 |

| melting point | Structure (SMILES) |
| --- | --- |
| 140 to 141 °C | SCc1cn(C(c2ccccc2)(c2ccccc2)c2ccccc2)nn1 |
| 132 to 133 °C | CC1C(=O)C2CC(=O)N2C1C(=O)OC(c1ccccc1)c1ccccc1 (stereo unspecified) |
| 125 to 126 °C | CC(C(=O)N(C)O)c1ccc(-c2ccccc2)c(F)c1 (stereo unspecified) |
| 125 to 130 °C | COc1cc(C(=O)NS(=O)(=O)c2ccccc2)ccc1Cc1cn(C)c2ccc(NC(=O)OC3CCCC3)cc12 |
| 235 to 236 °C | Cc1cc(Nc2cc(Cl)nc(-c3ccccc3)n2)[nH]n1 |
| 98 to 100 °C | Cc1oc(-c2ccccc2)nc1Cc1cc2cc(Br)ccc2o1 |
| 69 to 71 °C | Nc1ccccc1CC1NCCc2ccccc21 (stereo unspecified) |
| 177 to 179 °C | O=C(O)c1cccc(CN2CCC(c3cn(Cc4ccoc4)c4ncccc34)CC2)c1 |
| 142 to 144 °C | CCOC(=O)NC1Cc2ccccc2C1Nc1ccc(OC)cc1CO (stereo unspecified) |
| 209 °C | COc1ccc(C2CC(C(C)(C)C)=NN2c2ccc(C(=O)O)cc2)cc1 (stereo unspecified) |
| 180 to 182 °C | O=[N+]([O-])c1cccc2c1ncn2-c1cccc(Br)c1 |
| 89 °C | c1ccc2cc(OCCNC3CCCCC3)ccc2c1 |
| 203 to 204 °C | COc1c(O)cc2oc(-c3ccccc3)cc(=O)c2c1O |
| 176 °C | ON=C(c1ccccc1)c1cccc2nc(N[C@@H]3CCc4ccccc43)ccc12 |
| 184 to 186 °C | COc1ccc(-c2cc(C(Nn3cnnc3)c3ccccc3OS(N)(=O)=O)ccc2C#N)cc1 (stereo unspecified) |
| 154 to 155 °C | CCCCn1c(C)c(C)cc(NC(=O)Nc2ccccc2Br)c1=O |
| 41 to 43 °C | COc1cccc(CSCCNC(=O)c2c(OC)cccc2OC)c1 |
| 177 °C | Cc1csc(COc2nn3c(-c4ccccc4)nnc3cc2-c2ccccc2)n1 |
| > 260 °C | CC(=O)Nc1nc(N)nc(-c2ccc(-c3ccccc3)cc2)n1 |
| 202 to 205 °C | COc1nn(-c2ccnc(N[C@H]3CC[C@H](O)CC3)n2)c2ccccc12 |
| 203 to 205 °C | NNc1cc2c(nn1)CCN(C(=O)CCCc1ccccc1)C2 |
| 139 to 140 °C | CC(=O)N(C(C)=O)c1nc2n(n1)CCc1ccccc1-2 |
| 190 to 192 °C | COCc1c(C(=O)OC(CO)CO)ncc2[nH]c3ccc(OCc4ccccc4)cc3c12 |
| 246 to 248 °C | CCN1C(=O)C(=S2CN(CC)c3ccccc32)SC1=S (stereo unspecified) |
